Results published in patent publication US10064885B2, “Metabolic gene, enzyme, and flux targets for cancer therapy” (Massachusetts Institute of Technology, priority 2010, dated 2018).

Tests used:
Type in all cases: cell-based, human
[1] = tested on: A549 cells; assay: Reductive glutamine metabolism by isotopic labeling and GC/MS in A549 cells expressing shRNAs; details: [1-13C]glutamine
Description: (§1) Cell Culture, Isotopic Labeling, and Hypoxia. All cell lines were cultured in Dulbecco's Modified Eagle Medium (DMEM; Mediatech) containing 10% fetal bovine serum (FBS; Invitrogen) and 100 U/ml penicillin/streptomycin (P/S; Mediatech) unless otherwise mentioned. Cell lines were obtained from ATCC unless otherwise noted. The VC3 glioma cell line was provided by Tim Lautenschlaeger (Ohio State University), MDA-MB-231 and HCT116 cell lines were provided by Ferdinando Chiaradonna (University of Milano-Bicocca), MRC5 cells were provided by Stephen Lippard (MIT), SN12C, ACHN, and 786-O cells were provided by Kevin Courtney and Lew Cantley (Harvard Medical School), and MCF10A cells were provided by Joan Brugge (Harvard Medical School), and Huh7 cells were provided by Mike Hemann (MIT). MCF10A cells were cultured in custom DMEM/F12 (Hyclone) containing 5% horse serum, 20 ng/ml EGF, 10 μg/ml insulin, 100 ng/ml cholera toxin, 0.5 mg/ml hydrocortisone, 100 U/ml penicillin/streptomycin, and labeled/unlabeled glucose and glutamine at 18 mM and 2.5 mM, respectively. PRC3, WT8, pTV, and pTR cell lines were subcloned from the 786-O cell line as previously described (42, 43). For isotopic labeling experiments, cells were cultured in 6 well plates in glucose- and glutamine-free DMEM (Sigma) containing 10% dialyzed FBS (Invitrogen), 100 U/ml P/S, naturally labeled glucose or glutamine, and the appropriate tracer, including [U-^13C5]glutamine (Isotec), [5-^13C]glutamine (C/D/N Isotopes), [1-^13C]glutamine, [U-^13C6]glucose, [1,2-^13C2]glucose (all from Cambridge Isotope Labs). Steady state labeling of organic and amino acids was accomplished by culturing subconfluent cells in tracer medium for 24 hours. […] The internal gas content was monitored using Fyrite gas analyzers (Bacharach) for CO2 and O2. […]
(§2) Metabolite Extraction and Gas Chromatography/Mass Spectrometry (GC/MS) Analysis. […] In some ISA experiments, cells were trypsinized, counted, and pelleted prior to lipid extraction as described above. […]

[2] = tested on: HCT116 colon carcinoma; assay: Reductive carboxylation by [1-13C]glutamine labeling and GC/MS in HCT116 cells expressing shRNAs
Description: as §1, §2

[3] = tested on: MDA-MB-231 breast carcinoma; assay: Reductive carboxylation by [1-13C]glutamine labeling and GC/MS in MDA-MB-231 cells expressing shRNAs
Description: as §1, §2

CCGGGTGGACATCCAGCTAAAGTATCTCGAGATACTTTAGCTGGATGTCCACTTT TT (CCGGGTGGACATCCAGCTAAAGTATCTCGAGATACTTTAGCTGGATGTCCACTTTTT; expressed or natural sequence) [IDH2 shRNA, pLKO.1 lentiviral vector shRNA targeting IDH2]
reductive carboxylation (M1 label from [1-13C]glutamine) [1]: does not affect reductive carboxylation flux | reductive carboxylation flux (M1 label from [1-13C]glutamine) [2]: does not affect reductive carboxylation flux | reductive carboxylation flux (M1 label from [1-13C]glutamine) [3]: does not affect reductive carboxylation flux
